Assay results from US20250002471A1 (Gilead Sciences, Inc., priority 2020, published 2025).
Read-outs that look alike come from different tables or passages of the source.

Assays:
[1] = molecular target: T1, TLR7 (Homo sapiens, UniProt Q9NYK1); test: Human PBMC cell-based assay, TLR7 agonist GS-986 stimulation, cytokine (IL-6 and IFNα) readout; settings: human PBMCs, read-out: TLR-7 EC50
T1 construct: lymphocytes, monocytes and dendritic cells that express TLR7, TLR8 and TLR9; endogenous in cells; host or cells: human PBMCs from healthy donors
T1 sequence (Q9NYK1 27-1049): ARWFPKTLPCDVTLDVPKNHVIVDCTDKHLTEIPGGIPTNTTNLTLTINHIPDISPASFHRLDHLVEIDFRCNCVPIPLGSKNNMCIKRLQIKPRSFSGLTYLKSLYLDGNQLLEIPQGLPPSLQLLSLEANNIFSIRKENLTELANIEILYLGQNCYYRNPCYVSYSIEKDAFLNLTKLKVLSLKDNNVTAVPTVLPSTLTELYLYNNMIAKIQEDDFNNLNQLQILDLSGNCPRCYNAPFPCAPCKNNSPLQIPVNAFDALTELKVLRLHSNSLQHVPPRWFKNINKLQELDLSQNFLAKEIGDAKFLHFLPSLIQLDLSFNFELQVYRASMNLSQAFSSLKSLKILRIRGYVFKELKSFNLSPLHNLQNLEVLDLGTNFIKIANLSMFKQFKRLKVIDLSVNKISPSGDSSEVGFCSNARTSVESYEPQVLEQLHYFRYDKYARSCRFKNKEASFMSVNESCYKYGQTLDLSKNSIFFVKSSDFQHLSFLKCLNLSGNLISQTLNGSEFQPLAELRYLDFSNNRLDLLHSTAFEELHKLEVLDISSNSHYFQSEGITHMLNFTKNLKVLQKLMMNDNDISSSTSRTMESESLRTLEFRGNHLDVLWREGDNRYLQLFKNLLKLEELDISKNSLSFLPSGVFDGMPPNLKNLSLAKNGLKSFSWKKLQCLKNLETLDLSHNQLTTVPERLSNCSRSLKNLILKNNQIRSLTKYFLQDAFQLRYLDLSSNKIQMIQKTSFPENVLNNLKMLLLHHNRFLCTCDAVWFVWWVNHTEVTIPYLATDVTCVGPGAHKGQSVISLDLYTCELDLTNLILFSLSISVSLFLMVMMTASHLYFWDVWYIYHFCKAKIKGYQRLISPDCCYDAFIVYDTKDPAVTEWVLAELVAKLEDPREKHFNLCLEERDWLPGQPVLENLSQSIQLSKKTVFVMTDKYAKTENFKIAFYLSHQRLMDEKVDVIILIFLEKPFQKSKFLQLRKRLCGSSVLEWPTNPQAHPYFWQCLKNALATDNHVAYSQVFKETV
How it was run: (§1)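 Readout is IL-6 and IFNα in supernatants, quantified by electrochemiluminescence, with EC50 from a sigmoidal fit of cytokine versus concentration. Healthy-donor human PBMCs, 100,000 per well, got antagonist for 1 h at 37 °C, then 6 h agonist exposure: TLR7 via GS-986 at 400 nM final, TLR9 via ODN-2216 at 3 μM final.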

[2] = molecular target: cloned hERG potassium channel encoded by the KCNH2 gene (Homo sapiens, UniProt Q12809); test: hERG FASTPatch assay (QPatch patch clamp, HEK293T cells); format: cell-based; settings: HEK293T cells, 1, 3, 10 and 30 uM, room temperature; Table 27
cloned hERG potassium channel encoded by the KCNH2 gene, sequence (Q12809 whole entry): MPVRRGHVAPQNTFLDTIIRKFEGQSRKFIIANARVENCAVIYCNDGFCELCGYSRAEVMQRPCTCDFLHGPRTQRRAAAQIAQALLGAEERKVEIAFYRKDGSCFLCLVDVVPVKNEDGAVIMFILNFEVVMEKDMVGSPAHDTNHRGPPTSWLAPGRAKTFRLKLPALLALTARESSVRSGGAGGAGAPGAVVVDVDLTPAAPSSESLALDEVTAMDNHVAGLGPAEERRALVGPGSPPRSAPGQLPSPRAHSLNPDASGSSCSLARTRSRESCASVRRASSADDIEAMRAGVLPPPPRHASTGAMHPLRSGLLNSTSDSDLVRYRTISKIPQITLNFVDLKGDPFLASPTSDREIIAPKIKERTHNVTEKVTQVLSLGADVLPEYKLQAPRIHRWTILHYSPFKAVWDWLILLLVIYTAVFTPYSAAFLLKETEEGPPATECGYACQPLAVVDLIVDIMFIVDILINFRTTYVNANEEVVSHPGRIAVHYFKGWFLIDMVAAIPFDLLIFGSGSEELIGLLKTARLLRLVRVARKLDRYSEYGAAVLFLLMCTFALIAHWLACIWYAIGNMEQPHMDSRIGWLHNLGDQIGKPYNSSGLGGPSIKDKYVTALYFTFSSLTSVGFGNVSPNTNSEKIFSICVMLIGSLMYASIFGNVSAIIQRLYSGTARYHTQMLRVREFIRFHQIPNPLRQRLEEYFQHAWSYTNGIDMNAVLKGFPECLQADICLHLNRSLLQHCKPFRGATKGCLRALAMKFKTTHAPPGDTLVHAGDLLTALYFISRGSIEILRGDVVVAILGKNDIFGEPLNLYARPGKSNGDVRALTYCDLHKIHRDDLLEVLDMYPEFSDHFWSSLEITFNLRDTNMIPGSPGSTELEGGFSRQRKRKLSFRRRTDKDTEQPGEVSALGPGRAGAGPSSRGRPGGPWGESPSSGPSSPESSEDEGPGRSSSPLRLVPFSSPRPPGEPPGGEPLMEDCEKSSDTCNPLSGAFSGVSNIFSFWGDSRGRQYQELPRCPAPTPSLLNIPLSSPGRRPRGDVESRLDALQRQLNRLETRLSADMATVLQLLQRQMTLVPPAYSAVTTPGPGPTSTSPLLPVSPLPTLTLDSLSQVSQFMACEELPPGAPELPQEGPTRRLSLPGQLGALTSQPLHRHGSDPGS
Method: The FASTPatch® Assay (Charles River) was used to examine the in vitro effects of the compounds provided herein on the cloned hERG potassium channel encoded by the KCNH2 gene and stably expressed in HEK293T cells. Vehicle, test and control article formulations were prepared by diluting DMSO stock solutions in HB-PS (HEPES-buffered physiological saline solution) and were delivered to cells via the QPatch robot pipetting system to a final concentration of 0.3% DMSO. Test compound final concentrations of 1, 3, 10 and 30 uM were applied to cells (n >3, where n=the number of cells/concentration) in ascending order in at least three minute intervals separated by solution exchange. The positive control, 50 nM cisparide, was applied in the same manner. Cell membrane currents were recorded at room temperature with up to 48 parallel patch clamp amplifiers in the QPatch HT® or QPatch HTX® system, and only cells with validated whole-cell recordings (seal resistance >200 MQ and leak current <25% channel current) were used. Onset and block of hERG current was measured using a stimulus voltage pattern consisting of a 500 ms prepulse to −40 mV, a 2-second activating pulse to +40 mV, followed by a 2-second test pulse to −40 mV. The pulse pattern was repeated continuously at 10-second intervals from a holding potential of −80 mV. % Block={1-1/[1+([Test]/IC50)^N]}*100% Where [Test] is the concentration of test article, IC50 is the concentration of the test article producing half-maximal inhibition, N is the Hill coefficient and % Block is the percentage of current inhibited at each concentration of the test article. Nonlinear least squares fits will be solved with the Solver add-in for Excel 2000 or later (Microsoft, Redmon, WA). TurboSol analysis for test compound solubility was performed for each concentration tested using a Nephelostar reader measuring light scatter from a 635 nm laser source. Based on validation experiments, light scatter above four times the background level was considered an indication of the presence of particles in suspension.

[3] = molecular target: T2, TLR9 (Homo sapiens, UniProt Q9NR96); test: Human PBMC cell-based assay, TLR9 agonist ODN-2216 stimulation, cytokine (IL-6 and IFNα) readout; settings: human PBMCs, read-out: TLR-9 EC50
T2 construct: lymphocytes, monocytes and dendritic cells that express TLR7, TLR8 and TLR9; endogenous in cells; host or cells: human PBMCs from healthy donors
T2 sequence (Q9NR96 26-1032): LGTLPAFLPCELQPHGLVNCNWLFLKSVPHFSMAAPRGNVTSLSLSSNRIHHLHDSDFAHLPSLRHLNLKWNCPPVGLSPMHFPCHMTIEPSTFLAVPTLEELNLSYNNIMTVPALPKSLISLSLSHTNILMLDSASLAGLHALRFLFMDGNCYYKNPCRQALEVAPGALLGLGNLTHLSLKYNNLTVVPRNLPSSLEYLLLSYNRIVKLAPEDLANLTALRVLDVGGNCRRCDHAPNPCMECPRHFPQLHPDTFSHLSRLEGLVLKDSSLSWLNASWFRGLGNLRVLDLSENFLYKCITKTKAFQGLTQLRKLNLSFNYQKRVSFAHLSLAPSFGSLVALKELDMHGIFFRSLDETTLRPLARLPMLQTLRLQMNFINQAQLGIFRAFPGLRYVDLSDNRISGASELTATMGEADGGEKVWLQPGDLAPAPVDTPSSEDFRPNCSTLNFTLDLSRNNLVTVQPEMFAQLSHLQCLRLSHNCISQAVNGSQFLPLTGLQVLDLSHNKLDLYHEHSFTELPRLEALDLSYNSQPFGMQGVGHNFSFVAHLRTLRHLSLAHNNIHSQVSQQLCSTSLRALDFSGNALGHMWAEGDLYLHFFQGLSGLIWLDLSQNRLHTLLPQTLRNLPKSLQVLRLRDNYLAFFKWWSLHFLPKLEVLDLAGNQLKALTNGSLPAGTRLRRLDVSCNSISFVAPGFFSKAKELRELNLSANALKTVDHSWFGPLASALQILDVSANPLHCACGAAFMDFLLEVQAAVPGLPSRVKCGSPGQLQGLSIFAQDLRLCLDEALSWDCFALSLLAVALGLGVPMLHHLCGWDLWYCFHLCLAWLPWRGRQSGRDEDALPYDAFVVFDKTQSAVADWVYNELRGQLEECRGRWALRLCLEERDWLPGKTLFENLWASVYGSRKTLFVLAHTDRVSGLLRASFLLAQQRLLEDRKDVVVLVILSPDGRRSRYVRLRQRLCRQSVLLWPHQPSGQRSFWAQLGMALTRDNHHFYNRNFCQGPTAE
How it was run: as §1

[4] = GS-986 400 nM, 6 hours, Table 26
[5] = ODN-2216 3 μM, 6 hours, Table 26

Structure (SMILES)	EC50 [1, 4] [nM]	EC50 [3, 5] [nM]	EC50 ([1]; Table 27 comparison) [nM]	EC50 ([3]; Table 27 comparison) [nM]	IC50 [2] [nM]
Cc1cc(-c2[nH]c3cc(-c4ccc(N5CCC(C)(N)CC5)nc4)ccc3c2C)cc(C)n1 [Example 23]	16.8	29			18500
Cc1cc(-c2[nH]c3ccc(C4CCCNC4)cc3c2C(C)C)cc(C)n1 (stereo not drawn) [Example C, reference compound]			2.3	583	11000
Cc1cc(-c2[nH]c3ccc(-c4ccc(N5CCC(C)(N)CC5)nc4)cc3c2C(C)C)cc(C)n1 [Example D, reference compound]			12	249	7800

Now from value to molecule, other results behind:

EC50 [1, 4] [nM]	EC50 [3, 5] [nM]	EC50 ([1]; Table 27 comparison) [nM]	EC50 ([3]; Table 27 comparison) [nM]	Structure (SMILES)	IC50 [2] [nM]
315	136			Cc1cc(-c2[nH]c3cc(-c4ccnc(N5CCNCC5)c4)ccc3c2C)cc(C)n1 [Example 64]	20300
		7.8	285	Cc1cc(-c2[nH]c3ccc(-c4ccnc(N5CCNCC5)c4)cc3c2C(C)C)cc(C)n1 [Example B, reference compound]	2100
